Laboratory results taken from BindingDB's records for doi:10.1128/aac.01536-06 (Public Health Research Institute, 2007).

Experiments:
1,3-beta-glucan synthase [1] = target: T1, 1,3-beta-glucan synthase (Candida albicans, UniProt O13423); experiment: Inhibition of glucan synthase in Candida albicans ATCC 90028 in presence of 50% human serum
1,3-beta-glucan synthase [2] = target: T1, 1,3-beta-glucan synthase; experiment: Inhibition of glucan synthase in Candida albicans ATCC 36082 in presence of 10% human serum
1,3-beta-glucan synthase [3] = target: T1, 1,3-beta-glucan synthase; experiment: Inhibition of glucan synthase in Candida albicans ATCC 36082 in presence of 20% human serum
1,3-beta-glucan synthase [4] = target: T1, 1,3-beta-glucan synthase; experiment: Inhibition of glucan synthase in Candida albicans ATCC 36082 in presence of 50% human serum
1,3-beta-glucan synthase [5] = target: T1, 1,3-beta-glucan synthase; experiment: Inhibition of glucan synthase in Candida albicans SC5314 in presence of 20% human serum
1,3-beta-glucan synthase [6] = target: T1, 1,3-beta-glucan synthase; experiment: Inhibition of glucan synthase in Candida albicans SC5314 in presence of 50% human serum
1,3-beta-glucan synthase [7] = target: T1, 1,3-beta-glucan synthase; experiment: Inhibition of glucan synthase in Candida albicans ATCC 36082
1,3-beta-glucan synthase [8] = target: T1, 1,3-beta-glucan synthase; experiment: Inhibition of glucan synthase in Candida albicans SC5314 in presence of 10% human serum
1,3-beta-glucan synthase [9] = target: T1, 1,3-beta-glucan synthase; experiment: Inhibition of glucan synthase in Candida albicans 36082 assessed as incorporation of [3H]uridine diphosphoglucose
1,3-beta-glucan synthase [10] = target: T1, 1,3-beta-glucan synthase; experiment: Inhibition of glucan synthase in Candida albicans 36082 assessed as incorporation of [3H]uridine diphosphoglucose in presence of 50% serum
1,3-beta-glucan synthase [11] = target: T1, 1,3-beta-glucan synthase; experiment: Inhibition of glucan synthase in Candida albicans ATCC 90028 in presence of 20% human serum

T1 sequence (O13423 whole entry): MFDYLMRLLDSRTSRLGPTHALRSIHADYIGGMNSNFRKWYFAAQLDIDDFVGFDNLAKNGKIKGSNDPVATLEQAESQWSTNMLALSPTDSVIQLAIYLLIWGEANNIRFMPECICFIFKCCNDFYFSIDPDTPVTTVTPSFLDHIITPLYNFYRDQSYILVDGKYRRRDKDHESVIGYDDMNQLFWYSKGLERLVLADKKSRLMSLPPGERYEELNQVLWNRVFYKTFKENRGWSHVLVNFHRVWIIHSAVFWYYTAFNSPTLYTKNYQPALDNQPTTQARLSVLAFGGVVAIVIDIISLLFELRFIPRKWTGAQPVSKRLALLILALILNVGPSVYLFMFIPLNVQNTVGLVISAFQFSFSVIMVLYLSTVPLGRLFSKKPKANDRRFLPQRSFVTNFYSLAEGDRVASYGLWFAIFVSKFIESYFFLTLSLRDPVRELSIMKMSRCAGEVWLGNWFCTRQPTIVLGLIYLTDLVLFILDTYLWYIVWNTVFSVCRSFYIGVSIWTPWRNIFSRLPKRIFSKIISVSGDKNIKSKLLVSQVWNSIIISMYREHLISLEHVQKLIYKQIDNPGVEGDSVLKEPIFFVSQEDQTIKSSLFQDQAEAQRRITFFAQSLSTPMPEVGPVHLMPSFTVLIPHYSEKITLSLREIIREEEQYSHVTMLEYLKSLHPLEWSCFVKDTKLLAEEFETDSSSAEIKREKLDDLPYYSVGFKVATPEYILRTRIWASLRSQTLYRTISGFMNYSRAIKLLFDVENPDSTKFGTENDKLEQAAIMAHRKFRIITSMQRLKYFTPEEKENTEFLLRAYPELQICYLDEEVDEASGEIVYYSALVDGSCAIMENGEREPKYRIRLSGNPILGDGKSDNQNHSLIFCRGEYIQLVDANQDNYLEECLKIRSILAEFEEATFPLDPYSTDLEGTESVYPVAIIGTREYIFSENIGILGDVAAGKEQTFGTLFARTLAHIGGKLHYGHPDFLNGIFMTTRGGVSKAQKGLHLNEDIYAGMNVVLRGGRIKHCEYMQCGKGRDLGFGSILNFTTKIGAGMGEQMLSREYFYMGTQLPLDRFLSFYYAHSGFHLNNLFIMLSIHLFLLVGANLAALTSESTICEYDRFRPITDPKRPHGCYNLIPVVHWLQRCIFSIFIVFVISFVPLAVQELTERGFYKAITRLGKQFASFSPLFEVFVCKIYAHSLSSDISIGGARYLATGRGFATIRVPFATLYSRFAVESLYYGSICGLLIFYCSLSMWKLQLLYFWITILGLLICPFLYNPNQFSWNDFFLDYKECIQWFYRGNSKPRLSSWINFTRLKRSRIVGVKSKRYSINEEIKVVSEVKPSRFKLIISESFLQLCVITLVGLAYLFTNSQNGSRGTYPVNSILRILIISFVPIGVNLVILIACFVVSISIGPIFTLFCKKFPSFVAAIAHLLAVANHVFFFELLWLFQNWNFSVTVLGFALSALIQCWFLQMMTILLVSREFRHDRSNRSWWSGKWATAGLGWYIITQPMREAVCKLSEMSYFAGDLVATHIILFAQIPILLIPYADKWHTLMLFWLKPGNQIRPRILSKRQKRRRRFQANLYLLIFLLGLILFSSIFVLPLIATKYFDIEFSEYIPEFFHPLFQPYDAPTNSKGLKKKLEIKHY

With CCC(C)CC(C)CCCCCCCCC(=O)N[C@H]1C[C@@H](O)[C@@H](NCCN)NC(=O)[C@@H]2[C@@H](O)CCN2C(=O)[C@H]([C@H](O)CCN)NC(=O)[C@H]([C@H](O)[C@@H](O)c2ccc(O)cc2)NC(=O)[C@@H]2C[C@@H](O)CN2C(=O)[C@H]([C@@H](C)O)NC1=O (stereo partly specified) [CHEBI:474180] the IC50 (1,3-beta-glucan synthase [1]) was 6.3 nM, the IC50 (1,3-beta-glucan synthase [2]) was 2.8 nM and the IC50 (1,3-beta-glucan synthase [3]) was 5.3 nM. The IC50 (1,3-beta-glucan synthase [4]) was 8.7 nM, the IC50 (1,3-beta-glucan synthase [5]) was 37 nM and the IC50 (1,3-beta-glucan synthase [6]) was 81 nM. For the same compound, the IC50 (1,3-beta-glucan synthase [7]) was 0.9 nM, the IC50 (1,3-beta-glucan synthase [8]) was 27 nM and the IC50 (1,3-beta-glucan synthase [9]) was 0.33 nM. The IC50 (1,3-beta-glucan synthase [10]) was 6.2 nM and the IC50 (1,3-beta-glucan synthase [11]) was 2.1 nM.
